Measurements reported in patent publication US20170014352A1, “WATER-DISPERSIBLE AMORPHOUS PARTICLES AND METHOD FOR PREPARING SAME” (The University of Tokyo, priority 2014, published 2017).
Counter-ions that a name gives are not always drawn. Like-named read-outs stand apart in the source and are kept apart here. Blank lines part the entries; values can stand above or below the compound they belong to.

Legend:
[1] = particle size (Z-average, hydrodynamic diameter) and PDI by dynamic light scattering (DLS); type: physicochemical
Text: The “particle size” herein means an average particle size, and is defined as a particle size (Z-average) measured by use of a dynamic light scattering (Dynamic Light Scattering: DLS) method. The particle size thus measured is also referred to as “hydrodynamic diameter”.
The “polydispersity index (Polydispersity index: PDI)” herein is an index for evaluating the width of a particle size distribution, and is in the range from 0 to 1. A value of 0 represents an ideal suspension without any size distribution. A distribution having a PDI value of 0.1 or less is referred to as “monodispersity”, and on the other hand, a dispersion having a value between 0.1 and 0.3 is considered to have a narrow size distribution. A dispersion having a PDI of more than 0.5 is considered to be polydisperse. The polydispersity index is calculated from the value obtained by use of a dynamic light scattering (Dynamic Light Scattering: DLS) method.
Measurement by a DLS method was performed by use of a laser light scattering apparatus (Zetasizer Nano ZS manufactured by Malvern instruments Ltd.). A scanning electron microscope (SEM) image was obtained by use of Magellan 4001 manufactured by FEI Company. Powder X-ray diffraction was performed by use of SmartLab manufactured by Rigaku Corporation. FDU-1200 manufactured by EYELA was used for a freeze-dryer.

[2] = cited from earlier work; for logP: measured value described in the literature; for log P: starting organic compound, Examples 9 and 10
[3] = at 25° C.; cited from earlier work
[4] = Example 7: water injected into THF solution of compound (concentration 100 W), water dispersion
[5] = Example 6: 100 μM THF solution of compound injected into water, THF distilled off, water dispersion

Compound: c1ccc2cc3cc4cc5ccccc5cc4cc3cc2c1 [Pentacene, pentacene]
PDI [1, 4]: 0.02 | Particle size (nm) [1, 4]: 116 nm

Compound: c1cc2ccc3cccc4ccc(c1)c2c34 [Pyrene, pyrene]
PDI [1, 4]: 0.13 | Particle size (nm) [1, 4]: 120 nm

Compound: pyrenecarboxylic acid
PDI [1]: 0.14 | Particle size (nm) [1]: 76 nm

PDI [1, 5]: 0.27 | Particle size (nm) [1, 5]: 228 nm | PDI [1, 4]: 0.02 | Particle size (nm) [1, 4]: 165 nm
Compound: CC(C)CCC[C@@H](C)[C@H]1CC[C@H]2[C@@H]3CC=C4C[C@@H](O)CC[C@]4(C)[C@H]3CC[C@]12C [Cholesterol, cholesterol]
logP ([2]; Table 1): 9.61 | logP ([2]; Table 2): 9.61

Compound: Cc1c(OCC(F)(F)F)ccnc1C[S+]([O-])c1nc2ccccc2[nH]1 (stereo not shown) [Lansoprazole]
solubility in water [3]: less than 0.1 mg/mL | log P [2]: 2.58

Compound: COc1ccc(CC(C)NCC(O)c2ccc(O)c(NC=O)c2)cc1 (stereo not shown) [Formoterol fumarate hydrate]
solubility in water [3]: 170 µg/mL | log P [2]: 2.0

PDI [1, 4]: 0.34 | Particle size (nm) [1, 4]: 10 nm
Compound: CCCc1nc2c(C)cc(-c3nc4ccccc4n3C)cc2n1Cc1ccc(-c2ccccc2C(=O)O)cc1 [Telmisartan, telmisartan, reference compound]
logP ([2]; Table 2): 6.48
